Our source for the IC50 and EC50 values is ChEMBL document CHEMBL5523761 (J Med Chem, 2024).

Test [1] addresses T1, Amine oxidase [flavin-containing] A (Homo sapiens, UniProt P21397).
T1 sequence (P21397 whole entry): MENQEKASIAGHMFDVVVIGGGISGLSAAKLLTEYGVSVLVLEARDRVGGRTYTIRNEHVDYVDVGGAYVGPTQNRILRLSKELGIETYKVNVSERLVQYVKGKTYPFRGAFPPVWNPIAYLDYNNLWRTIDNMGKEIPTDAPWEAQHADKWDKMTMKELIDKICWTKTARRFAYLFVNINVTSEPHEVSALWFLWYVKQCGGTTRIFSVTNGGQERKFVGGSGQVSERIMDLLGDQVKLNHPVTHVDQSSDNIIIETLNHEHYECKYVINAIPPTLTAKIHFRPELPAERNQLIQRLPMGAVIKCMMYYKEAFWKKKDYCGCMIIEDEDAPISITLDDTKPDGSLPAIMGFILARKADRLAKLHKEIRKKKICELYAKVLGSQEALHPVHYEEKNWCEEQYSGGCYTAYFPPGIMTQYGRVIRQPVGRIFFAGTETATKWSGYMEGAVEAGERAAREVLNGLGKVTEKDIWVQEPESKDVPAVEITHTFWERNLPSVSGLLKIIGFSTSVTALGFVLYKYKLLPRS
Description: Inhibition of MAO-A (unknown origin) measured by MAO-GloTM method

Test [2] has as its target T2, Amine oxidase [flavin-containing] B (Homo sapiens, UniProt P27338).
T2 sequence (P27338 whole entry): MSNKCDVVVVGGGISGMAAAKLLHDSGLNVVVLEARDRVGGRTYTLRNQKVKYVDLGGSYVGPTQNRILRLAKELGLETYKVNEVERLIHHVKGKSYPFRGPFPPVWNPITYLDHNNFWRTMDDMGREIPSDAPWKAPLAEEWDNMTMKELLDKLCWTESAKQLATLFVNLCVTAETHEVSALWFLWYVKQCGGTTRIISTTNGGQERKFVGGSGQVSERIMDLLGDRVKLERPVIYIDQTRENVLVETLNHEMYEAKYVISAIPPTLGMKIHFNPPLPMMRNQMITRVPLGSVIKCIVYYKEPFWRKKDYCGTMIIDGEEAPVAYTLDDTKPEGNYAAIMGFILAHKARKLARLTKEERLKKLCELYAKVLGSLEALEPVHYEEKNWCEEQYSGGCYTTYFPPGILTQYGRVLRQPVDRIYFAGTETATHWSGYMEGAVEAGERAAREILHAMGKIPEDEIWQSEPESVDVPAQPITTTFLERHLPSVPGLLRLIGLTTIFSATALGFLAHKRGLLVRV
Description: Inhibition of MAO-B (unknown origin) measured by MAO-GloTM method

The target of another test is Vasopressin V1a receptor (Homo sapiens, UniProt P37288).
Vasopressin V1a receptor, sequence (P37288 whole entry): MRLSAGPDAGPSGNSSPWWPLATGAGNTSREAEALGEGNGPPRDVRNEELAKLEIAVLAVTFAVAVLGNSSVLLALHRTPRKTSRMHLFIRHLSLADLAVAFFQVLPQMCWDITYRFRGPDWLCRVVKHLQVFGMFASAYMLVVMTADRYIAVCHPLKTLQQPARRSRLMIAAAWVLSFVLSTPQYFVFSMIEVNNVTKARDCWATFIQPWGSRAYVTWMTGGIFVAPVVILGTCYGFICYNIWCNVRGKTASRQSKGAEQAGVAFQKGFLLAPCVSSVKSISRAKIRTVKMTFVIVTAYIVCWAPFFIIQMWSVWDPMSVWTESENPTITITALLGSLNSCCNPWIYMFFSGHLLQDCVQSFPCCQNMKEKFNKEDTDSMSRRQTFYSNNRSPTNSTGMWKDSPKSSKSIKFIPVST
Test [3] addresses T3, D(4) dopamine receptor (Homo sapiens, UniProt P21917).
T3 sequence (P21917 whole entry): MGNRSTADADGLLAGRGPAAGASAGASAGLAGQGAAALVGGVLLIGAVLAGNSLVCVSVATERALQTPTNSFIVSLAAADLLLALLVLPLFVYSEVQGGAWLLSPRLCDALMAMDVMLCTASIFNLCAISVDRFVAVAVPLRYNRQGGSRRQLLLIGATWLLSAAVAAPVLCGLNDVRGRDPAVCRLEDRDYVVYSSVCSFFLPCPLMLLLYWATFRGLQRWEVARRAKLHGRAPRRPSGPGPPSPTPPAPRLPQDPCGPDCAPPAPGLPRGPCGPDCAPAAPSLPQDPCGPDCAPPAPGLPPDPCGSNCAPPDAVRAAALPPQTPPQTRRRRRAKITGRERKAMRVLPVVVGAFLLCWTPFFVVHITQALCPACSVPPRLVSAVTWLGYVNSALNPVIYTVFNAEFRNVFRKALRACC
Description: Inhibition of D4 receptor (unknown origin)

In test [4] the target is T4, D(3) dopamine receptor (Homo sapiens, UniProt P35462).
T4 sequence (P35462 whole entry): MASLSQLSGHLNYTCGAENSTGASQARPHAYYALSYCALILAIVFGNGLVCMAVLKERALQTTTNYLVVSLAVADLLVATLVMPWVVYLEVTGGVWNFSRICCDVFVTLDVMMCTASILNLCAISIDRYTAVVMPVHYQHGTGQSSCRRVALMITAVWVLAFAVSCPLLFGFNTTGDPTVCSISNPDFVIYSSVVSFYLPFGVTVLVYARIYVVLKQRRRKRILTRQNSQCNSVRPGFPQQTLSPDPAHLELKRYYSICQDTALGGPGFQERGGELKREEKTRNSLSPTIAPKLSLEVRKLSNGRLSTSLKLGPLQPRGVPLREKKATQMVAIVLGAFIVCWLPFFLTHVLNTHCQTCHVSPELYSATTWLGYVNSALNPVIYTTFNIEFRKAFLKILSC
Description: Agonist activity at D3 receptor (unknown origin)
Test [5] has as its target T3, D(4) dopamine receptor. The source holds these as a separate data set.
Description: Agonist activity at D4 receptor (unknown origin)
For test [6], the target named is T4, D(3) dopamine receptor. This is another data set of the same source.
Description: Inhibition of D3 receptor (unknown origin)

By IC50 is commonly meant the concentration that inhibits the measured activity by half. The term EC50 denotes the concentration that produces a half-maximal response. Read a high EC50 as weaker potency.

Description for Vasopressin V1a receptor: Inhibition of Vasopressin V1A receptor (unknown origin)

With `O=c1cc(-c2ccc(O)c(O)c2)oc2cc(O)cc(O)c12` [LUTEOLIN], the IC50 in test [1] was 8.57 µM; in test [2], greater than 100 µM; against Vasopressin V1a receptor it was 19.5 µM; against D(4) dopamine receptor [3], 39.6 µM.

`Oc1c(O)c(Br)c(COCc2c(Br)c(O)c(O)c(Br)c2Br)c(Br)c1Br`: the EC50 at D(3) dopamine receptor [4] and on D(4) dopamine receptor [5] was 59 µM each time. Besides, the IC50 in test [1] was found to be 89.3 µM; in test [2], 103 µM.

In the case of `O=C(/C=C/c1ccc(O)cc1)c1ccc(O)cc1O` [ISOLIQUIRITIGENIN], the 50% inhibitory concentration (IC50) at D(3) dopamine receptor [6] was found to be 62.3 µM; against Vasopressin V1a receptor, 78.6 µM.
